This is an account of results in patent US8859768B2, “Heteroaryls and uses thereof” (Millennium Pharmaceuticals, Inc., priority 2010, dated 2014).

For this assay, the target named is T1, Human VPS34 (Homo sapiens, UniProt Q8NEB9).
T1 construct: GST (N); host or cells: SF9 insect cells (baculovirus)
T1 sequence (Q8NEB9 whole entry): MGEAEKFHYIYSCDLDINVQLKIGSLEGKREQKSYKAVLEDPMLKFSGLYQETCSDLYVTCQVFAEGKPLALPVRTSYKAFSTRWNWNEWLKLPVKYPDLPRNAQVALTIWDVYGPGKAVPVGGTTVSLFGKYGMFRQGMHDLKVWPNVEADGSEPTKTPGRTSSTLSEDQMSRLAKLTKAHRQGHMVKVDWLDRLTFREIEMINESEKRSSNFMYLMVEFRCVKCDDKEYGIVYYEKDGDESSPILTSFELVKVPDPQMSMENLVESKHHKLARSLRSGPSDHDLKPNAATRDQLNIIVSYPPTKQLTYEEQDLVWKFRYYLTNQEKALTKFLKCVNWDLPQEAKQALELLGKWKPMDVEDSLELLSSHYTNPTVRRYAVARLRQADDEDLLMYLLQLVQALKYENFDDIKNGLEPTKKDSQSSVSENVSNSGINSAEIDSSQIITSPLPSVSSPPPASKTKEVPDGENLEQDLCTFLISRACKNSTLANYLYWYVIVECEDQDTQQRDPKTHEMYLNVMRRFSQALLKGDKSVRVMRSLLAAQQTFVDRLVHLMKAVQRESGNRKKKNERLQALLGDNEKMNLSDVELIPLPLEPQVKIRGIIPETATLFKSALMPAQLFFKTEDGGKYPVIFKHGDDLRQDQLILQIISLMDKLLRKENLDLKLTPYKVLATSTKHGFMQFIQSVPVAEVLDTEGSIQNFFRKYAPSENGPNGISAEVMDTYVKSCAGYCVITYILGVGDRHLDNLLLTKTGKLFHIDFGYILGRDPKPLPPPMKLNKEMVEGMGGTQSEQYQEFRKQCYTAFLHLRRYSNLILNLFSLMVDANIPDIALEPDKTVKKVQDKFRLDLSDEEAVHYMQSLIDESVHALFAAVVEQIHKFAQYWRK
In words: Human VPS34 Enzyme Assay (Adapta TR-FRET). Format: biochemical. The note with it: compound at 1.111 μM; read-out: Average VPS34 % INH @ 1.111 μM. The protocol:
VPS34 (accession number GB:BC033004) was cloned into pDEST20-Thombin as N-terminal GST tagged fusion proteins using the Gateway system (Invitrogen, catalog#11804-013). The sequences were verified before recombinant protein expression using the Baculovirus Expression System with Gateway® Technology.
For expression VPS34 was infected at 1MOI in SF9 cells and harvested 72 hours post infection.
For purification, VPS34 is purified by Glutathione Sepharose 4 Fast Flow (GE Healthcare #17-5132-03) followed by HiTrap Q (GE Healthcare #17-1153-01).
Human VPS34 Enzyme Assay Method
100 nL compounds in DMSO are added to wells of a 384 well microtitre plate (Greiner 780076). At room temperature: 5 ul VPS34 reaction buffer (Invitrogen Assay Buffer Q (diluted 1 in 5 with nanopure water) plus 2 mM DTT and 2 mM MnCl2) containing ATP (20 uM, Promega) and 200 uM PI-PS substrate (Invitrogen PV5122) is added followed immediately by 5 ul VPS34 reaction buffer (as above) containing VPS34 (5 nM, Millennium Protein Sciences Group) and the mixture is incubated with shaking at room temperature for 1 hour. Then 5 ul VPS34 stop-detect mix (as per Invitrogen Adapta Assay kit (PV5009) instructions (contains kinase quench buffer, TR-FRET buffer, Adapta Eu anti-ADP antibody and Alexa Fluor 647 ADP tracer)) is added to quench the reaction. The plates are then incubated for 30 minutes at room temperature with shaking and then read on a BMG PheraStar Plus reader.
3) VPS34 is assayed using Adapta™ Universal Kinase Assay Kit (Invitrogen).
On the technique in general: Time-resolved FRET reads energy transfer from a long-lived donor to a nearby acceptor.
Turning to `CC(=O)Nc1cc(-c2nc(C(=O)N(C)C)c(-c3ccccc3Cl)o2)c(C)cn1` [Compound I-73, 2-(2-acetamido-5-methylpyridin-4-yl)-5-(2-chlorophenyl)-N,N-dimethyl-1,3-oxazole-4-carboxamide], the inhibition at 1.111 µM was 115%.

Consider `CNC(=O)c1nc(-c2cc(NC(C)=O)ncc2C)oc1-c1ccccc1Cl` [Compound I-52, 2-(2-acetamido-5-methylpyridin-4-yl)-5-(2-chlorophenyl)-N-methyl-1,3-oxazole-4-carboxamide], for which the inhibition at 1.111 µM worked out at 117%.

Consider `CC(=O)Nc1cc(-c2cc(C(=O)NCCn3ccnc3)c(-c3ccccc3Cl)o2)c(C)cn1` [Compound I-12, 5-(2-acetamido-5-methylpyridin-4-yl)-2-(2-chlorophenyl)-N-[2-(1H-imidazol-1-yl)ethyl]-3-furamide], for which the inhibition at 1.111 µM amounted to 61%.

As for `CC(=O)Nc1cc(-c2cc(C(=O)NCc3ccco3)c(-c3ccccc3Cl)o2)c(C)cn1` [Compound I-88, 5-(2-acetamido-5-methylpyridin-4-yl)-2-(2-chlorophenyl)-N-(2-furylmethyl)-3-furamide], the inhibition at 1.111 µM came to 114%.

Turning to `CC(=O)Nc1cc(-c2cc(C(=O)NC[C@@H](C)O)c(-c3ccccc3Cl)o2)c(C)cn1` (stereo in doubt) [Compound I-66, 5-(2-acetamido-5-methylpyridin-4-yl)-2-(2-chlorophenyl)-N-(2-hydroxypropyl)-3-furamide], the inhibition at 1.111 µM turned out to be 131%.

With `COCCC(=O)Nc1cc(-c2nc(-c3nnc[nH]3)c(-c3ccccc3Cl)o2)ccn1` [Compound I-45, N-{4-[5-(2-chlorophenyl)-4-(4H-1,2,4-triazol-3-yl)-1,3-oxazol-2-yl]pyridin-2-yl}-3-methoxypropanamide], the inhibition at 1.111 µM came to 104%.

For the compound `CC(=O)Nc1cc(-c2cc(C(=O)N(C)C)c(-c3ccccc3Cl)o2)c(C)cn1` [Compound I-61, 5-(2-acetamido-5-methylpyridin-4-yl)-2-(2-chlorophenyl)-N,N-dimethyl-3-furamide], the inhibition at 1.111 µM is 96%.

As to `CC(=O)Nc1cc(-c2nc(C(=O)NCCCCO)c(-c3ccccc3Cl)o2)c(C)cn1` [Compound I-13, 2-(2-acetamido-5-methylpyridin-4-yl)-5-(2-chlorophenyl)-N-(4-hydroxybutyl)-1,3-oxazole-4-carboxamide], the inhibition at 1.111 µM is 95%.

For the compound `CC(=O)Nc1cc(-c2cc(C(=O)NCCOCCO)c(-c3ccccc3Cl)o2)c(C)cn1` [Compound I-34, 5-(2-acetamido-5-methylpyridin-4-yl)-2-(2-chlorophenyl)-N-[2-(2-hydroxyethoxy)ethyl]-3-furamide], the inhibition at 1.111 µM came to 128%.

As for `CC(=O)Nc1cc(-c2cc(C(N)=O)c(-c3ccccc3Cl)o2)c(C)cn1` [Compound I-83, 5-(2-acetamido-5-methylpyridin-4-yl)-2-(2-chlorophenyl)-3-furamide], the inhibition at 1.111 µM turned out to be 130%.

On to `O=C(Cn1cccn1)Nc1cc(-c2nc(-c3nnc[nH]3)c(-c3ccccc3Cl)o2)ccn1` [Compound I-37, N-{4-[5-(2-chlorophenyl)-4-(4H-1,2,4-triazol-3-yl)-1,3-oxazol-2-yl]pyridin-2-yl}-2-(1H-pyrazol-1-yl)acetamide], for which the inhibition at 1.111 µM worked out at 117%.

Consider `CC(=O)Nc1cc(-c2nc(C(=O)NCCOCCO)c(-c3ccccc3Cl)o2)c(C)cn1` [Compound I-25, 2-(2-acetamido-5-methylpyridin-4-yl)-5-(2-chlorophenyl)-N-[2-(2-hydroxyethoxy)ethyl]-1,3-oxazole-4-carboxamide], for which the inhibition at 1.111 µM was 41%.

Take `CC(=O)Nc1cc(-c2cc(C(=O)NCc3ccccn3)c(-c3ccccc3Cl)o2)c(C)cn1` [Compound I-44, 5-(2-acetamido-5-methylpyridin-4-yl)-2-(2-chlorophenyl)-N-(pyridin-2-ylmethyl)-3-furamide]: the inhibition at 1.111 µM turned out to be 150%.

As to `CC(=O)Nc1cc(-c2nc(C(=O)NCc3cccnc3)c(-c3ccccc3Cl)o2)c(C)cn1` [Compound I-47, 2-(2-acetamido-5-methylpyridin-4-yl)-5-(2-chlorophenyl)-N-(pyridin-3-ylmethyl)-1,3-oxazole-4-carboxamide], the inhibition at 1.111 µM was found to be 31%.

Consider `CC(=O)Nc1cc(-c2nc(C(=O)NCCCn3ccnc3)c(-c3ccccc3Cl)o2)c(C)cn1` [Compound I-63, 2-(2-acetamido-5-methylpyridin-4-yl)-5-(2-chlorophenyl)-N-[3-(1H-imidazol-1-yl)propyl]-1,3-oxazole-4-carboxamide], for which the inhibition at 1.111 µM amounted to 14%.

`CC(=O)Nc1cc(-c2nc(C(=O)NCc3ccccn3)c(-c3ccccc3Cl)o2)c(C)cn1` [Compound I-20, 2-(2-acetamido-5-methylpyridin-4-yl)-5-(2-chlorophenyl)-N-(pyridin-2-ylmethyl)-1,3-oxazole-4-carboxamide]: the inhibition at 1.111 µM turned out to be 37%.

For the compound `CC(=O)Nc1cc(-c2nc(C(=O)NCc3ccco3)c(-c3ccccc3Cl)o2)c(C)cn1` [Compound I-9, 2-(2-acetamido-5-methylpyridin-4-yl)-5-(2-chlorophenyl)-N-(2-furylmethyl)-1,3-oxazole-4-carboxamide], the inhibition at 1.111 µM stood at 64%.

For `O=C(Cc1ccccc1)Nc1cc(-c2nc(-c3nnc[nH]3)c(-c3ccccc3Cl)o2)ccn1` [Compound I-67, N-{4-[5-(2-chlorophenyl)-4-(4H-1,2,4-triazol-3-yl)-1,3-oxazol-2-yl]pyridin-2-yl}-2-phenylacetamide], the inhibition at 1.111 µM was found to be 39%.

For the compound `CC(C)CC(=O)Nc1cc(-c2nc(-c3nnc[nH]3)c(-c3ccccc3Cl)o2)ccn1` [Compound I-65, N-{4-[5-(2-chlorophenyl)-4-(4H-1,2,4-triazol-3-yl)-1,3-oxazol-2-yl]pyridin-2-yl}-3-methylbutanamide], the inhibition at 1.111 µM was found to be 21%.

With `CC(=O)Nc1cc(-c2cc(C(=O)Nc3ccccc3)c(-c3ccccc3Cl)o2)c(C)cn1` [Compound I-19, 5-(2-acetamido-5-methylpyridin-4-yl)-2-(2-chlorophenyl)-N-phenyl-3-furamide], the inhibition at 1.111 µM turned out to be 48%.

`CC(=O)Nc1cc(-c2cc(-c3nnc[nH]3)c(N3CCCC(N(C)C)C3)o2)c(C)cn1` (stereo not drawn) [Compound I-26, N-(4-{5-[3-(dimethylamino)piperidin-1-yl]-4-(4H-1,2,4-triazol-3-yl)-2-furyl}-5-methylpyridin-2-yl)acetamide]: the inhibition at 1.111 µM was 129%.

As to `CC(=O)Nc1cc(-c2cc(C(=O)NC(C)C)c(-c3ccccc3Cl)o2)c(C)cn1` [Compound I-72, 5-(2-acetamido-5-methylpyridin-4-yl)-2-(2-chlorophenyl)-N-isopropyl-3-furamide], the inhibition at 1.111 µM was 78%.

Turning to `CC(=O)Nc1cc(-c2nc(C(=O)NC(C)C)c(-c3ccccc3Cl)o2)c(C)cn1` [Compound I-21, 2-(2-acetamido-5-methylpyridin-4-yl)-5-(2-chlorophenyl)-N-isopropyl-1,3-oxazole-4-carboxamide], the inhibition at 1.111 µM was determined as 25%.

With `CC(=O)Nc1cc(-c2nc(-c3cc(CN4CCCC4)ccc3Cl)c(C(N)=O)o2)c(C)cn1` [Compound I-28, 2-(2-acetamido-5-methylpyridin-4-yl)-4-[2-chloro-5-(pyrrolidin-1-ylmethyl)phenyl]-1,3-oxazole-5-carboxamide], the inhibition at 1.111 µM amounted to 81%.

In the case of `COC(=O)Nc1cc(-c2nc(-c3nnc[nH]3)c(-c3ccccc3Cl)o2)c(C)cn1` [Compound I-35, methyl {4-[5-(2-chlorophenyl)-4-(4H-1,2,4-triazol-3-yl)-1,3-oxazol-2-yl]-5-methylpyridin-2-yl}carbamate], the inhibition at 1.111 µM turned out to be 117%.

`CC(=O)Nc1cc(-c2cc(C(=O)NCc3cccs3)c(-c3ccccc3Cl)o2)c(C)cn1` [Compound I-42, 5-(2-acetamido-5-methylpyridin-4-yl)-2-(2-chlorophenyl)-N-(2-thienylmethyl)-3-furamide]: the inhibition at 1.111 µM stood at 117%.

As to `CC(=O)Nc1cc(-c2cc(C(=O)O)c(-c3ccccc3Cl)o2)c(C)cn1` [Compound I-56, 5-(2-acetamido-5-methylpyridin-4-yl)-2-(2-chlorophenyl)-3-furoic acid], the inhibition at 1.111 µM stood at 139%.

Turning to `CC(=O)Nc1cc(-c2cc(C(=O)NCCC(C)C)c(-c3ccccc3Cl)o2)c(C)cn1` [Compound I-80, 5-(2-acetamido-5-methylpyridin-4-yl)-2-(2-chlorophenyl)-N-(3-methylbutyl)-3-furamide], the inhibition at 1.111 µM was found to be 92%.

As to `CNC(=O)c1cc(-c2cc(NC(C)=O)ncc2C)oc1-c1ccccc1Cl` [Compound I-54, 5-(2-acetamido-5-methylpyridin-4-yl)-2-(2-chlorophenyl)-N-methyl-3-furamide], the inhibition at 1.111 µM was 152%.

Consider `CC(=O)Nc1cc(-c2cc(-c3nnc[nH]3)c(-c3cc(CN4CCCC4)ccc3Cl)o2)c(C)cn1` [Compound I-36, N-(4-{5-[2-chloro-5-(pyrrolidin-1-ylmethyl)phenyl]-4-(4H-1,2,4-triazol-3-yl)-2-furyl}-5-methylpyridin-2-yl)acetamide], for which the inhibition at 1.111 µM worked out at 129%.
